Experimental data published in PubChem BioAssay (NCI).
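These data come from cells grown in 96-well plates and exposed to compound for 48 hours at five concentrations. At the TGI there is no net growth.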

Columns and labels:
Experiment in all cases: DTP human tumour cell line panel, 48 h
786-0 renal = test system: 786-0 renal
A498 renal = test system: A498 renal
A549 NSCLC = test system: A549 NSCLC
ACHN renal = test system: ACHN renal
BT-549 breast = test system: BT-549 breast
CAKI-1 renal = test system: CAKI-1 renal
CCRF-CEM leukemia = test system: CCRF-CEM leukemia
COLO 205 colon = test system: COLO 205 colon
DU-145 prostate = test system: DU-145 prostate
EKVX NSCLC = test system: EKVX NSCLC
HCC-2998 colon = test system: HCC-2998 colon
HCT-116 colon = test system: HCT-116 colon
HCT-15 colon = test system: HCT-15 colon
HL-60(TB) leukemia = test system: HL-60(TB) leukemia
HOP-92 NSCLC = test system: HOP-92 NSCLC
IGROV1 ovarian = test system: IGROV1 ovarian
K-562 leukemia = test system: K-562 leukemia
KM12 colon = test system: KM12 colon
LOX IMVI melanoma = test system: LOX IMVI melanoma
M14 melanoma = test system: M14 melanoma
MALME-3M melanoma = test system: MALME-3M melanoma
MCF7 breast = test system: MCF7 breast
MDA-MB-231 breast = test system: MDA-MB-231 breast
MDA-MB-435 = test system: MDA-MB-435
MDA-N = test system: MDA-N
MOLT-4 leukemia = test system: MOLT-4 leukemia
NCI-H226 lung = test system: NCI-H226 lung
NCI-H23 lung = test system: NCI-H23 lung
NCI-H522 lung = test system: NCI-H522 lung
NCI/ADR-RES ovarian = test system: NCI/ADR-RES ovarian
OVCAR-3 ovarian = test system: OVCAR-3 ovarian
OVCAR-4 ovarian = test system: OVCAR-4 ovarian
OVCAR-5 ovarian = test system: OVCAR-5 ovarian
OVCAR-8 ovarian = test system: OVCAR-8 ovarian
PC-3 prostate = test system: PC-3 prostate
RPMI-8226 leukemia = test system: RPMI-8226 leukemia
RXF 393 renal = test system: RXF 393 renal
SF-295 CNS = test system: SF-295 CNS
SF-539 CNS = test system: SF-539 CNS
SK-MEL-2 melanoma = test system: SK-MEL-2 melanoma
SK-MEL-5 melanoma = test system: SK-MEL-5 melanoma
SK-OV-3 ovarian = test system: SK-OV-3 ovarian
SN12C renal = test system: SN12C renal
SR leukemia = test system: SR leukemia
SW-620 colon = test system: SW-620 colon
TK-10 renal = test system: TK-10 renal
U251 CNS = test system: U251 CNS
UACC-257 melanoma = test system: UACC-257 melanoma
UACC-62 melanoma = test system: UACC-62 melanoma
UO-31 renal = test system: UO-31 renal
HOP-62 NSCLC = test system: HOP-62 NSCLC
HT29 colon = test system: HT29 colon
SF-268 CNS = test system: SF-268 CNS
SK-MEL-28 melanoma = test system: SK-MEL-28 melanoma
SNB-19 CNS = test system: SNB-19 CNS
SNB-75 CNS = test system: SNB-75 CNS
T-47D breast = test system: T-47D breast

CCOC(=O)/C(C#N)=C/Nc1c(C)n(C)n(-c2ccccc2)c1=O
TGI (786-0 renal): > 100 µM | TGI (A498 renal): > 100 µM | TGI (A549 NSCLC): > 100 µM | TGI (ACHN renal): > 100 µM | TGI (BT-549 breast): > 100 µM | TGI (CAKI-1 renal): > 100 µM | TGI (CCRF-CEM leukemia): > 100 µM | TGI (COLO 205 colon): > 100 µM | TGI (DU-145 prostate): > 100 µM | TGI (EKVX NSCLC): > 100 µM | TGI (HCC-2998 colon): > 100 µM | TGI (HCT-116 colon): > 100 µM | TGI (HCT-15 colon): > 100 µM | TGI (HL-60(TB) leukemia): > 100 µM | TGI (HOP-92 NSCLC): > 100 µM | TGI (IGROV1 ovarian): > 100 µM | TGI (K-562 leukemia): > 100 µM | TGI (KM12 colon): > 100 µM | TGI (LOX IMVI melanoma): > 100 µM | TGI (M14 melanoma): > 100 µM | TGI (MALME-3M melanoma): > 100 µM | TGI (MCF7 breast): > 100 µM | TGI (MDA-MB-231 breast): > 100 µM | TGI (MDA-MB-435): > 100 µM | TGI (MDA-N): > 100 µM | TGI (MOLT-4 leukemia): > 100 µM | TGI (NCI-H226 lung): > 100 µM | TGI (NCI-H23 lung): > 100 µM | TGI (NCI-H522 lung): > 100 µM | TGI (NCI/ADR-RES ovarian): > 100 µM | TGI (OVCAR-3 ovarian): > 100 µM | TGI (OVCAR-4 ovarian): > 100 µM | TGI (OVCAR-5 ovarian): > 100 µM | TGI (OVCAR-8 ovarian): > 100 µM | TGI (PC-3 prostate): > 100 µM | TGI (RPMI-8226 leukemia): > 100 µM | TGI (RXF 393 renal): > 100 µM | TGI (SF-295 CNS): > 100 µM | TGI (SF-539 CNS): > 100 µM | TGI (SK-MEL-2 melanoma): > 100 µM | TGI (SK-MEL-5 melanoma): > 100 µM | TGI (SK-OV-3 ovarian): > 100 µM | TGI (SN12C renal): > 100 µM | TGI (SR leukemia): > 100 µM | TGI (SW-620 colon): > 100 µM | TGI (TK-10 renal): > 100 µM | TGI (U251 CNS): > 100 µM | TGI (UACC-257 melanoma): > 100 µM | TGI (UACC-62 melanoma): > 100 µM | TGI (UO-31 renal): > 100 µM

CC12CCCC(O)C1CCC1=CC3(CCC12)SCCS3 (stereo unspecified)
TGI (786-0 renal): > 10 µM | TGI (A549 NSCLC): > 10 µM | TGI (ACHN renal): > 10 µM | TGI (BT-549 breast): > 10 µM | TGI (CAKI-1 renal): > 10 µM | TGI (CCRF-CEM leukemia): > 10 µM | TGI (COLO 205 colon): > 10 µM | TGI (DU-145 prostate): > 10 µM | TGI (HCC-2998 colon): > 10 µM | TGI (HCT-15 colon): > 10 µM | TGI (HOP-62 NSCLC): > 10 µM | TGI (HOP-92 NSCLC): > 10 µM | TGI (HT29 colon): > 10 µM | TGI (IGROV1 ovarian): > 10 µM | TGI (K-562 leukemia): > 10 µM | TGI (KM12 colon): > 10 µM | TGI (LOX IMVI melanoma): > 10 µM | TGI (M14 melanoma): > 10 µM | TGI (MALME-3M melanoma): > 10 µM | TGI (MCF7 breast): > 10 µM | TGI (MDA-MB-231 breast): > 10 µM | TGI (MDA-MB-435): > 10 µM | TGI (MDA-N): > 10 µM | TGI (NCI-H23 lung): > 10 µM | TGI (NCI-H522 lung): > 10 µM | TGI (NCI/ADR-RES ovarian): > 10 µM | TGI (OVCAR-3 ovarian): > 10 µM | TGI (OVCAR-4 ovarian): > 10 µM | TGI (OVCAR-8 ovarian): > 10 µM | TGI (PC-3 prostate): > 10 µM | TGI (RPMI-8226 leukemia): > 10 µM | TGI (SF-268 CNS): > 10 µM | TGI (SF-295 CNS): > 10 µM | TGI (SK-MEL-28 melanoma): > 10 µM | TGI (SK-MEL-5 melanoma): > 10 µM | TGI (SK-OV-3 ovarian): > 10 µM | TGI (SN12C renal): > 10 µM | TGI (SNB-19 CNS): > 10 µM | TGI (SNB-75 CNS): > 10 µM | TGI (SR leukemia): > 10 µM | TGI (SW-620 colon): > 10 µM | TGI (T-47D breast): > 10 µM | TGI (TK-10 renal): > 10 µM | TGI (U251 CNS): > 10 µM | TGI (UACC-257 melanoma): > 10 µM | TGI (UACC-62 melanoma): > 10 µM
